pIC50: −log10 of the molar value. Non-standard residues stand in square brackets, D forms with d. Residues, ends and D or L forms follow the SMILES beside them. *: point of attachment. Sta = CC(C)C[C@H](N)[C@@H](O)CC(=O)O; Isovaleryl = CC(C)CC(=O)*
Experiments:
human renin = target: T1, human renin (Homo sapiens, UniProt P00797); assay: Human Renin Inhibition in vitro (angiotensin I produced, by radioimmunoassay); type: biochemical; details: pH 7.4, 37° C., two hours, human plasma
T1 construct: purchased National Institute for Biological Standards, London
T1 sequence (P00797 67-406): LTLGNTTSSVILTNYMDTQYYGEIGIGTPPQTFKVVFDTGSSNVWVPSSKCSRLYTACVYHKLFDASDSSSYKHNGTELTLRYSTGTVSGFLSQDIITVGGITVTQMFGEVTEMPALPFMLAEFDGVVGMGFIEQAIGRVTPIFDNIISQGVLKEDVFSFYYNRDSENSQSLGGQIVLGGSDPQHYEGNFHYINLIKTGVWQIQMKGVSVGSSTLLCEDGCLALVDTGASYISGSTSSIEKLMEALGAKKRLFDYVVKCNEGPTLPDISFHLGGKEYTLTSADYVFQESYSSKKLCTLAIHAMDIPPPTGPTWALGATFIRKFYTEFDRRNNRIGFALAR
Protocol: Compounds of Formula I were evaluated as inhibitors of human renin in an in Vitro assay, as follows: This human renin inhibition test has been previously described in detail [Papaioannou et al., Clinical and Experimental Hypertension, A7(9), 1243-1257 (1985)]. Human renin was obtained from the National Institute for Biological Standards, London. An incubation mixture was prepared containing the following components: in a total volume of 0.25 mL: 100 mM Tris-acetate buffer at pH 7.4, 25×10^-6 Goldblatt units of renin, 0.05 mL of plasma from human volunteers taking oral contraceptives, 6.0 mM Na-EDTA, 2.4 mM phenylmethyl sulfonyl fluoride, 1.5 mM 8-hydroxyquinoline, 0.4 mg/mL bovine serum albumin (BSA), and 0.024 mg/mL neomycin sulfate. This mixture was incubated for two hours at 37° C. in the presence or absence of renin inhibitors. The produced angiotensin I was determined by radioimmunoassay (New England Nuclear kit). Test compounds to be assayed were dissolved in DMSO and diluted with 100 mM Tris-acetate buffer at pH 7.4 containing 0.5% BSA to the appropriate concentration. The final concentration of organic solvent in the reaction mixture was less than 1%. Control incubations at 37° C. were used to correct for effects of organic solvent on renin activity.

pepsin = details: cited from earlier work
hog renin = details: after injection of hog renin into nephrectomized rats; cited from earlier work
cathepsin D = details: cited from earlier work
renin = details: cited from earlier work

Row | pIC50 (human renin) | SMILES | inhibitor of pepsin (pepsin) | blood pressure (hog renin) | inhibitor of cathepsin D (cathepsin D) | inhibitor of renin (renin)
1 | 9.00 | C#CC[C@H](NC(=O)[C@@H](CC(=O)N(C)CCN1CCOCC1)Cc1ccccc1)C(=O)N[C@@H](CC1CCCCC1)[C@@H](O)[C@@H](O)CC(C)C [Example 1, N^1-[1R*-[[[1S,1R*-(cyclohexylmethyl)-2S*,3R* -dihydroxy-5-methylhexyl]amino]carbonyl]-3-butynyl]-N^4-methyl-N^4-[2-(4-morpholinyl)ethyl]-2S*-(phenylmethyl)butanediamide] | – | – | – | –
2 | – | CC(C)CC(=O)N[C@H](C(=O)N[C@H](C(=O)N[C@@H](CC(C)C)[C@@H](O)CC(=O)N[C@@H](C)C(=O)N[C@@H](CC(C)C)[C@@H](O)CC(=O)O)C(C)C)C(C)C [pepstatin] (Isovaleryl-VV[Sta]A[Sta]-OH) | inhibitor | reduce blood pressure in vivo | inhibitor | inhibitor

— patent US5422349A, “Morpholino-oxazinyl-terminated alkylamino ethynyl alanine amino diol compounds for treatment of hypertension” (G. D. Seale & Co., priority 1992, dated 1995)
